From US12064426B2, “Selective inhibitors of ROCK1 and ROCK2 protein kinases and uses thereof” (GENOSCO Inc., priority 2021, dated 2024)

What was measured:
[1] = molecular target: T1, Recombinant ROCK2 (amino acids 5-554) (Homo sapiens, UniProt O75116); experiment: ROCK inhibition assay, LANCE Ultra TR-FRET kinase assay (ROCK2); assay type: biochemical; conditions: 4 μM ATP, 50 nM ULight-CREBtide substrate
T1 construct: ROCK2 (amino acids 5-554); by word order, ROCK2 from SignalChem
Outline: (§1)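 Reaction buffer 50 mM HEPES pH 7.5, 10 mM MgCl2, 1 mM EGTA, 2 mM DTT; kinase, ULight-CREBtide (50 nM) and ATP (ROCK1 1 μM, ROCK2 4 μM) react 1 h at room temperature. Phospho-Ser133 detected by europium antibody after 10 mM EDTA stop, TR-FRET ex 320 nm; IC50 calculated.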

[2] = molecular target: T2, Recombinant ROCK1 (amino acids 1-477) (Homo sapiens, UniProt Q13464); experiment: ROCK inhibition assay, LANCE Ultra TR-FRET kinase assay (ROCK1); assay type: biochemical; conditions: 1 μM ATP, 50 nM ULight-CREBtide substrate
T2 construct: Recombinant ROCK1 (amino acids 1-477); by word order, ROCK1 from Carna Biosciences
T2 sequence (Q13464 1-477): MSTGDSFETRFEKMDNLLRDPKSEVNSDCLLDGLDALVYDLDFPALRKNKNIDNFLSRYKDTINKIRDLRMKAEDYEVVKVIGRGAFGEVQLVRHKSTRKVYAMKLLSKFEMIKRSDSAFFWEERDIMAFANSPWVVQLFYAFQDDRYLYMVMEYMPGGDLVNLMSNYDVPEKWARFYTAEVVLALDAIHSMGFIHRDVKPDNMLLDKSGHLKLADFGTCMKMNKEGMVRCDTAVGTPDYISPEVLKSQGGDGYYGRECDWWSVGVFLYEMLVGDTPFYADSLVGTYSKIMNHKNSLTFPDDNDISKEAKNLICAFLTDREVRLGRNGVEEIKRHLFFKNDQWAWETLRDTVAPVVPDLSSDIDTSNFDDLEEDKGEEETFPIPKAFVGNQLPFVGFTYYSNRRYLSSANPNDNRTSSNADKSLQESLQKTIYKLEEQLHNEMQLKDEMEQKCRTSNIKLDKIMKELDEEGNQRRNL
Outline: as §1

T1 sequence (O75116 5-554): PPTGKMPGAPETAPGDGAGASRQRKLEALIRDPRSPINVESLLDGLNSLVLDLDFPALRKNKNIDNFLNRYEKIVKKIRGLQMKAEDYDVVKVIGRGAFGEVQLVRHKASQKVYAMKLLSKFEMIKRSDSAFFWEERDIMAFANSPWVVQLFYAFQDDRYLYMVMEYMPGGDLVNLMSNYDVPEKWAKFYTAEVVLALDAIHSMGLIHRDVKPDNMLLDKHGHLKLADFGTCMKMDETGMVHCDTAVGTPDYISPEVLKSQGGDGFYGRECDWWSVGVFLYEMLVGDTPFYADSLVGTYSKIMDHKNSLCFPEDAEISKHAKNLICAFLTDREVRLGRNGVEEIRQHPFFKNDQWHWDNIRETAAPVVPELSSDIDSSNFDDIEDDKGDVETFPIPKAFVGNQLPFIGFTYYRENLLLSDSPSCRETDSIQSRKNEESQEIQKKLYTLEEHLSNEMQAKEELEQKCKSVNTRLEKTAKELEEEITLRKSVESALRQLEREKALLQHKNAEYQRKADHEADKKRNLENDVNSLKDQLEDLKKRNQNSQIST

| IC50 [1] [nM] | IC50 [2] [nM] | Structure (SMILES) |
| --- | --- | --- |
| 100 to 500 | > 501 | Cc1n[nH]cc1-c1ccc2c(=O)n(Cc3cccc(C(=O)Nc4ccccc4OC(F)(F)F)c3)ccc2c1 [Compound 38] |
| < 10 | 11 to 100 | COc1cccc(Cn2ccc3cc(-c4c[nH]nc4C(F)F)ccc3c2=O)c1 [Compound 13] |
| 10 to 100 | 11 to 100 | Cc1nocc1-c1ccc2c(=O)n(Cc3cccc(C(=O)NCC(F)(F)F)c3)ccc2c1 [Compound 67] |
| 10 to 100 | 101 to 500 | Nc1cc(-c2ccc3c(=O)n(Cc4cccc(C(=O)NCc5ccccc5)c4)ccc3c2)ccn1 [Compound 181] |
| 10 to 100 | 101 to 500 | CC(=O)Nc1cc(Cn2ccc3cc(-c4cnoc4C)ccc3c2=O)ccc1F [Compound 335] |
| < 10 | 11 to 100 | Cc1nocc1-c1ccc2c(=O)n(Cc3cccc(C(=O)Nc4ccc5c(c4)CCOC5)c3)ccc2c1 [Compound 91] |
| < 10 | < 10 | COc1cccc(C(CN)n2cnc3cc(-c4cn[nH]c4Cl)ccc3c2=O)c1 (centres unmarked) [Compound 500] |
| < 10 | 11 to 100 | COc1cccc(Cn2cnc3cc(-c4c[nH]nc4Cl)ccc3c2=O)c1 [Compound 362] |
| < 10 | < 10 | O=C(NC1CCNCC1)c1cccc(Cn2ccc3cc(-c4c[nH]nc4C(F)(F)F)ccc3c2=O)c1 [Compound 46] |
| < 10 | 11 to 100 | CC(c1cccc(O)c1)n1ccc2cc(-c3c[nH]nc3Cl)ccc2c1=O (centres unmarked) [Compound 21] |
| 100 to 500 | > 501 | O=C(NCc1ccccc1)c1cccc(Cn2ccc3cc(-c4cn[nH]c4)ccc3c2=O)c1 [Compound 30] |
| 100 to 500 | > 501 | Nc1cc(-c2ccc3c(=O)n(Cc4cccc(C(=O)Nc5ccon5)c4)ccc3c2)ccn1 [Compound 204] |
| < 10 | 11 to 100 | O=C(NCCO)c1cccc(Cn2cnc3cc(-c4cn[nH]c4C(F)F)ccc3c2=O)c1 [Compound 393] |
| < 10 | 11 to 100 | CNC(=O)c1cc(F)cc(Cn2ccc3cc(-c4cn[nH]c4C(F)F)ccc3c2=O)c1 [Compound 289] |
| 10 to 100 | 11 to 100 | CN(C)CCNC(=O)c1cccc(Cn2cnc3cc(-c4cn[nH]c4C(F)F)ccc3c2=O)c1 [Compound 394] |
| 100 to 500 | 101 to 500 | COCCNC(=O)c1cccc(Cn2ccc3cc(-c4ccnn4C)ccc3c2=O)c1 [Compound 120] |
| < 10 | 11 to 100 | CNC(=O)c1cccc(Cn2ccc3cc(-c4cn[nH]c4C(F)F)ccc3c2=O)c1 [Compound 286] |
| < 10 | 11 to 100 | O=C(NCCc1cccc(F)n1)c1cccc(Cn2ccc3cc(-c4c[nH]nc4C(F)(F)F)ccc3c2=O)c1 [Compound 54] |
| 100 to 500 | > 501 | Nc1cc(-c2ccc3c(=O)n(Cc4cccc(C(=O)NC5CCCC5)c4)ccc3c2)ccn1 [Compound 198] |
| 10 to 100 | 101 to 500 | O=C(NC1CC1)c1cc(F)cc(Cn2ccc3cc(-c4c[nH]nc4C(F)(F)F)ccc3c2=O)c1 [Compound 133] |
| 10 to 100 | 11 to 100 | COc1cccc(Cn2cnc3cc(-c4ccnn4C)ccc3c2=O)c1 [Compound 358] |
| < 10 | 11 to 100 | COc1cccc(Cn2ccc3cc(-c4c[nH]nc4Cl)ccc3c2=O)c1 [Compound 18] |
| < 10 | < 10 | Cc1nocc1-c1ccc2c(=O)n(Cc3cccc(C(=O)Nc4nc5c(s4)CCN(C)C5)c3)ccc2c1 [Compound 94] |
| < 10 | 11 to 100 | CNC(=O)c1cccc(Cn2ccc3cc(-c4cn[nH]c4Br)ccc3c2=O)c1 [Compound 512] |
| 10 to 100 | 101 to 500 | CNC(=O)c1cc(Cl)cc(Cn2ccc3cc(-c4cn[nH]c4C(F)(F)F)ccc3c2=O)c1 [Compound 285] |

Second part, the compound before the results:

| Structure (SMILES) | IC50 [1] [nM] | IC50 [2] [nM] |
| --- | --- | --- |
| O=C(NCCN1CCOCC1)c1cccc(Cn2ccc3cc(N4CCOCC4)ccc3c2=O)c1 [Compound 216] | 100 to 500 | 101 to 500 |
| CNC(=O)c1cccc(Cn2cnc3cc(-c4cn[nH]c4Cl)ccc3c2=O)c1 [Compound 404] | < 10 | < 10 |
| CO[C@H]1CC[C@H](NC(=O)c2cc(F)cc(Cn3ccc4cc(-c5conc5C)ccc4c3=O)c2)CC1 [Compound 141] | 100 to 500 | > 501 |
| CNC(=O)c1cccc(Cn2cc(C(C)O)c3cc(-c4ccnc(N)c4)ccc3c2=O)c1 (centres unmarked) [Compound 545] | < 10 | 11 to 100 |
| Cc1nocc1-c1cc2ccn(Cc3cc(F)cc(C(=O)NCC4CCOCC4)c3)c(=O)c2cn1 [Compound 266] | < 10 | 11 to 100 |
| CN(C)c1cccc(CNC(=O)c2cccc(Cn3cnc4cc(-c5cn[nH]c5C(F)F)ccc4c3=O)c2)c1 [Compound 400] | 10 to 100 | 101 to 500 |
| CN1CCC(NC(=O)c2cccc(Cn3cnc4cc(-c5cn[nH]c5Cl)ccc4c3=O)c2)CC1 [Compound 408] | < 10 | < 10 |
| Cc1nocc1-c1ccc2c(=O)n(Cc3cccc(C(=O)NCC4CCNCC4)c3)cnc2c1 [Compound 418] | < 10 | < 10 |
| Cc1nocc1-c1ccc2c(=O)n([C@H](C)c3cccc(C(=O)N(C)C)c3)cnc2c1 [Compound 470] | > 500 | > 501 |
| Cc1nocc1-c1ccc2c(=O)n(Cc3cc(F)cc(C(=O)Nc4nc5c(s4)CCN(C(C)C)C5)c3)ccc2c1 [Compound 159] | < 10 | 11 to 100 |
| CNC(=O)c1cccc(C(C)n2cc(CCO)c3cc(-c4cn[nH]c4C(F)(F)F)ccc3c2=O)c1 (centres unmarked) [Compound 549] | < 10 | 11 to 100 |
| CO[C@H]1CC[C@@H](NC(=O)c2cc(F)cc(Cn3ccc4cc(-c5conc5C)ccc4c3=O)c2)CC1 [Compound 142] | 100 to 500 | > 501 |
| CNC(=O)c1cc(F)cc(Cn2cnc3cc(-c4conc4C)ccc3c2=O)c1 [Compound 422] | < 10 | 11 to 100 |
| CNC(=O)c1cccc(Cn2cnc3cc(-c4ccnc(N)c4)ccc3c2=O)c1 [Compound 433] | 10 to 100 | 101 to 500 |
| CNC(=O)c1cccc(Cn2cc(CCO)c3cc(-c4cn[nH]c4C(F)(F)F)ccc3c2=O)c1 [Compound 546, 3-((4-(2-hydroxyethyl)-1-oxo-6-(5-(trifluoromethyl)-1H-pyrazol-4-yl)isoquinolin-2(1H)-yl)methyl)-N-methylbenzamide] | < 10 | 11 to 100 |
| COc1cccc([C@@H](CO)N2CNc3cc(-c4ccncc4)ccc3C2=O)c1 [Compound 527] | 100 to 500 | > 501 |
| O=C(NC1COC1)c1cc(F)cc(Cn2ccc3cc(N4CCOCC4)ccc3c2=O)c1 [Compound 208] | 100 to 500 | > 501 |
| Cc1nocc1-c1ccc2c(=O)n(Cc3cc(F)cc(C(=O)NCc4ccc(F)nc4)c3)ccc2c1 [Compound 147] | < 10 | 11 to 100 |

| Structure (SMILES) | IC50 [1] [nM] | IC50 [2] [nM] |
| --- | --- | --- |
| Cc1[nH]ncc1-c1ccc2c(=O)n(C(CN)c3cccc(Cl)c3)cnc2c1 (centres unmarked) [Compound 494] | < 10 | < 10 |
| CNC(=O)c1cccc([C@@H](C)n2cnc3cc(-c4cn[nH]c4Cl)ncc3c2=O)c1 [Compound 569] | < 10 | < 10 |
| CNC(=O)c1cccc(Cn2cnc3cc(-c4cnnn4C)ccc3c2=O)c1 [Compound 439] | > 500 | > 501 |
| CNC(=O)c1cc(Cn2cnc3cc(-c4cn[nH]c4C(F)(F)F)ccc3c2=O)ccc1F [Compound 389] | 10 to 100 | 11 to 100 |
| CNC(=O)c1cccc(Cn2cc(CCN(C)C)c3cc(-c4ccnn4C)ccc3c2=O)c1 [Compound 566] | < 10 | 11 to 100 |
| Nc1cc(-c2ccc3c(=O)n(Cc4cccc(C(=O)NC5COC5)c4)cnc3c2)ccn1 [Compound 434] | 10 to 100 | 101 to 500 |
| CN1CCC(NC(=O)c2cccc(Cn3cnc4cc(-c5ccnc(N)c5)ccc4c3=O)c2)CC1 [Compound 436] | < 10 | 11 to 100 |
| CC(C)NC(=O)c1cc(F)cc(Cn2ccc3cc(-c4c[nH]nc4Cl)ncc3c2=O)c1 [Compound 264] | < 10 | 11 to 100 |
| C[C@H](c1cccc(C(=O)NCC2CCOCC2)c1)n1cnc2cc(-c3cn[nH]c3C(F)(F)F)ccc2c1=O [Compound 451] | < 10 | 11 to 100 |
| O=C(NCCc1ccncc1)c1cccc(Cn2cnc3cc(-c4cn[nH]c4C(F)(F)F)ccc3c2=O)c1 [Compound 370] | < 10 | < 10 |
| O=C(NCC1CCNCC1)c1cccc(Cn2ccc3cc(N4CCOCC4)ccc3c2=O)c1 [Compound 217] | 10 to 100 | 101 to 500 |
| C[C@H](c1cccc(C(=O)NCC2CCN(C)CC2)c1)n1cnc2cc(-c3cn[nH]c3C(F)F)ccc2c1=O [Compound 461] | < 10 | < 10 |
| O=C(NCCN1CCOCC1)c1cccc(Cn2ccc3cc(N4CCOCC4)ccc3c2=O)c1 [Compound 230] | 10 to 100 | 11 to 100 |
| Cn1nccc1-c1ccc2c(=O)n(Cc3cc(F)cc(C(=O)NC4CCOCC4)c3)ccc2c1 [Compound 166] | 10 to 100 | 101 to 500 |
| CN1CCC(NC(=O)c2cccc(Cn3cnc4cc(-c5ccnn5C)ccc4c3=O)c2)CC1 [Compound 430] | < 10 | 11 to 100 |
| Cn1nccc1-c1cc2ccn(Cc3cc(F)cc(C(=O)NCCc4cccnc4)c3)c(=O)c2cn1 [Compound 271] | < 10 | < 10 |
| CNC(=O)c1cc(F)cc(C(C)n2ccc3cc(-c4conc4C)ccc3c2=O)c1 (centres unmarked) [Compound 316] | < 10 | 11 to 100 |
| COc1cccc([C@@H](CO)N2CNc3cc(-c4cnoc4C)ccc3C2=O)c1 [Compound 529] | > 500 | > 501 |
